Results as given in article PMC4703387, “Identification of the Calmodulin-Binding Domains of Fas Death Receptor” (PLoS ONE, 2016).
Where no end group is shown, it is not given here.

Legend:
Format in all cases: binding
Ca^2+/CaM [1] = target: T1, Ca^2+/CaM (Homo sapiens, UniProt P0DP23); test: 2D 1H-13C HMQC of 13C-labeled Ca^2+/CaM methionine methyl groups
T1 construct: made in house
Text: In the second approach, we assessed the role of hydrophobic surfaces located on the N- and C-terminal lobes of Ca^2+/CaM. These hydrophobic surfaces, which contribute to the flexibility and function of Ca^2+/CaM, are only formed when Ca^2+ is bound.[24] Ca^2+ binding induces a helical rearrangement, leading to exposure of eight methionine (Met) residues.[46, 47] Met residues are essential for the unique promiscuous binding behavior of Ca^2+/CaM to target proteins.[47] The methyl groups of Met residues are useful “NMR reporters” and widely used to probe for target binding.[34, 42, 47–49] Five Met residues (36, 51, 71, 72 and 76) are located in the N-terminal lobe and four (109, 124, 144, and 145) are located within the hydrophobic patch in the C-terminal lobe (Fig 8A). To assess whether the N- and C-terminal hydrophobic surfaces contribute to the binding of FasDD peptides, we collected 2D ^1H-^13C HMQC data on a uniformly ^13C-labeled Ca^2+/CaM sample as titrated with Fas-Pep1 or Fas-Pep2. Addition of a substoichiometric amount of Fas-Pep1 (0.5:1 peptide:Ca^2+/CaM) led to a decrease in the intensity of ^1H-^13C signals of M51, M71, M72, M109, M124 and M145 (Fig 8B, upper panel). Minimal or no chemical shift changes have been observed for signals corresponding to M76 and M144. Further addition of Fas-Pep1 led to appearance of new signals (Fig 8B). […]

Ca^2+/CaM-C = target: T2, Ca^2+/CaM-C (Homo sapiens, UniProt P0DP23); test: NMR titration (2D 1H-15N HSQC) of isolated C-terminal lobe; details: 1H-15N HSQC titration
T2 construct: ^15N-labled samples of the isolated Ca^2+/CaM-N and Ca^2+/CaM-C domains; made in house
Protocol: NMR data were collected at 35°C on a Bruker Avance II (700 MHz ^1H) spectrometer equipped with a cryogenic triple-resonance probe, processed with NMRPIPE [35] and analyzed with NMRVIEW [36] or CCPN Analysis. […] For signal assignments of the complexes, ^13C-, ^15N-, or ^13C-/^15N-labeled Ca^2+/CaM at ~400–500 μM was mixed with unlabeled Fas-Pep1 (in 100% DMSO-d6) or Fas-Pep2 at 1.5:1 peptide:Ca^2+/CaM. […] The backbone atom resonances of Ca^2+/CaM complexes with Fas-Pep1 and Fas-Pep2 were assigned using HNCA, HN(CO)CA, HNCACB, HNCO, HN(CO)CACB and ^15N-edited NOESY-HSQC and TOCSY-HSQC experiments. These experiments have been also collected on ^15N-, or ^13C-/^15N-labeled Fas-Pep2 in complex with unlabeled Ca^2+/CaM to confirm the α-helical character of Fas-Pep2 when bound to Ca^2+/CaM. […] Combined ^1H-^15N chemical shift changes were calculated as ΔδHN = [(ΔδH)^2+(ΔδN/5)^2]^1/2, where ΔδH and ΔδN are the ^1H and ^15N chemical shift changes, respectively. Kd values were calculated by non-linear least-square fitting algorithm in Origin software (OriginLab, Northampton, MA) using the equation: ΔδHN=ΔδHN^max((Kd+L0+P0)−((Kd+L0+P0)^2−4*P0*L0)^0.5)/(2*P0) where ΔδHN^max is the chemical shift change between complex and free protein, L0 total concentration of ligand, and P0 total concentration of protein. […]

Ca^2+/CaM [2] = target: T1, Ca^2+/CaM; test: NMR titration (2D 1H-15N HSQC) of 15N-labeled Ca^2+/CaM with FasDD peptides; details: 1H-15N HSQC, 15N-Ca^2+/CaM 100–150 μM, 35°C, pH 7.0
Protocol: NMR data were collected at 35°C on a Bruker Avance II (700 MHz ^1H) spectrometer equipped with a cryogenic triple-resonance probe, processed with NMRPIPE [35] and analyzed with NMRVIEW [36] or CCPN Analysis. […] For signal assignments of the complexes, ^13C-, ^15N-, or ^13C-/^15N-labeled Ca^2+/CaM at ~400–500 μM was mixed with unlabeled Fas-Pep1 (in 100% DMSO-d6) or Fas-Pep2 at 1.5:1 peptide:Ca^2+/CaM. […] The backbone atom resonances of Ca^2+/CaM complexes with Fas-Pep1 and Fas-Pep2 were assigned using HNCA, HN(CO)CA, HNCACB, HNCO, HN(CO)CACB and ^15N-edited NOESY-HSQC and TOCSY-HSQC experiments. These experiments have been also collected on ^15N-, or ^13C-/^15N-labeled Fas-Pep2 in complex with unlabeled Ca^2+/CaM to confirm the α-helical character of Fas-Pep2 when bound to Ca^2+/CaM. The chemical shifts of Ca^2+/CaM-bound Fas-Pep2 were used to predict its order parameters and secondary structure content in TALOS+.[38] Combined ^1H-^15N chemical shift changes were calculated as ΔδHN = [(ΔδH)^2+(ΔδN/5)^2]^1/2, where ΔδH and ΔδN are the ^1H and ^15N chemical shift changes, respectively. Kd values were calculated by non-linear least-square fitting algorithm in Origin software (OriginLab, Northampton, MA) using the equation: ΔδHN=ΔδHN^max((Kd+L0+P0)−((Kd+L0+P0)^2−4*P0*L0)^0.5)/(2*P0) where ΔδHN^max is the chemical shift change between complex and free protein, L0 total concentration of ligand, and P0 total concentration of protein.
To gain insights into the molecular elements of Ca^2+/CaM–FasDD interaction and to identify the interaction interface, we have utilized NMR chemical shift perturbation (CSP) as detected in ^1H-^15N heteronuclear single quantum coherence (HSQC) spectra. These experiments not only allow for identification of residues involved in binding but can also provide information on the induced conformational changes within proteins. 2D ^1H-^15N HSQC data obtained for a uniformly ^15N-labeled Ca^2+/CaM upon titration with unlabeled Fas-Pep1 are shown in Fig 5. Addition of substoichiometric amounts of Fas-Pep1 (0.5:1 peptide:Ca^2+/CaM) led to a decrease in intensity for a significant number of ^1H-^15N resonances accompanied by appearance of several new signals, consistent with a slow exchange on the NMR scale between the free and bound forms of Ca^2+/CaM. A steady decrease in intensity for the original ^1H-^15N signals and increase in intensity of the new signals was clearly observed with further addition of Fas-Pep1. Spectral changes ceased upon completion of peptide titration at 1.5:1 Fas-Pep1:Ca^2+/CaM ratio when only the new set of signals was present (Fig 5). […]
Only residues 214–227 have been detected in the x-ray structure of Ca^2+/CaM bound to FasDD(214–238); no electron density has been detected for residues 228–238.[40] […]

VQDTAEQKVQLLRNWHQLHGKKEAYDTLIKDLKKANLC [Fas-Pep2]
CSPs of Met resonances on binding (Ca^2+/CaM [1]): Notable CSPs are also observed in all of the ^1H-^13C resonances of Met residues
CSPs on Ca^2+/CaM-C (Ca^2+/CaM-C): significant CSPs for numerous residues
NMR exchange regime with Ca^2+/CaM (Ca^2+/CaM [2]): slow exchange
